Laboratory results reported in patent US7447594B2, “Molecular cardiotoxicology modeling” (Ocimum Biosolutions, Inc., priority 2001, dated 2008).

Columns and labels:
[1] = patients that do not have heart failure or use insulin; cited from earlier work
[2] = rat, in vivo; cited from earlier work
[3] = cited from earlier work
[4] = person, small quantity ingested; cited from earlier work
[5] = intravenous injection, four hours post-dose; cited from earlier work
[6] = cited from earlier work; for myocardial necrosis: young and mature rats
[7] = parameters: species or system male Sprague-Dawley rats; details: rat, in vivo, iv
Description: Amphotericin B is a polyene, antifungal antibiotic used to treat fungal infections. Its clinical utility is limited by its nephrotoxicity and cardiotoxicity.
The low and high dose level for each compound are provided in the chart below.
Heart • A sagittal cross-section containing portions of the two atria and of the two ventricles was preserved in 10% NBF. The remaining heart was frozen in liquid nitrogen and stored at ˜−80° C.

[8] = cited from earlier work; remark: listed apart in the source
[9] = cited from earlier work; remark: listed apart in the source
cellular glutathione = details: cited from earlier work
[10] = of 19 women treated with cyclophosphamide, thiotepa, and carboplatin; cited from earlier work
[11] = child, high-dose cyclophosphamide; cited from earlier work
[12] = high-dose patients; cited from earlier work
[13] = cited from earlier work; remark: listed apart in the source
[14] = normotensive rats; cited from earlier work
[15] = rats 3 months to 2 years old, dosed over two days; cited from earlier work

CN(CCOc1ccc(CC2SC(=O)NC2=O)cc1)c1ccccn1 (centres unmarked) [rosiglitazone]
edema [1]: moderate-to-severe edema

CC(C)(C)NCC(O)c1cc(Cl)c(N)c(Cl)c1 (centres unmarked) [clenbuterol]
muscle hypertrophy [2]: hypertrophy of the heart and latissimus dorsi muscle
aortic root dimensions ([3]; in vivo): significantly increased aortic root dimensions
left ventricular dimensions ([3]; vs exercised and control mares): significantly higher left ventricular internal dimension and interventricular septal wall thickness at end diastole
clinical findings after ingestion [4]: sustained sinus tachycardia, hypokalemia, hypophosphatemia, and hypomagnesemia

NNc1nncc2ccccc12 [hydralazine]
early focal myocardial lesions (histopathology) [5]: Lesions were observed
blood pressure and heart rate effects ([6]; rat, in vivo): Hypotension and reflex tachycardia
myocardial necrosis [6]: Myocardial necrosis was observed in both age groups

C[C@@H]1[C@H](O)[C@@H](C)/C=C/C=C/C=C/C=C/C=C/C=C/C=C/[C@H](O[C@@H]2O[C@H](C)[C@@H](O)[C@H](N)[C@@H]2O)C[C@@H]2O[C@](O)(C[C@@H](O)C[C@@H](O)[C@H](O)CC[C@@H](O)C[C@@H](O)CC(=O)O[C@H]1C)C[C@H](O)[C@H]2C(=O)O [amphotericin B]
cardiomyopathy [7]: some early signs of cardiomyopathy

C[C@H](CS)C(=O)N1CCC[C@H]1C(=O)O [captopril]
serum enzyme levels and white blood cell counts ([8]; captopril pre-treatment before adriamycin): significant reduction in serum enzyme levels as well as restoration of white blood cell counts

COc1cccc2c1C(=O)c1c(O)c3c(c(O)c1C2=O)C[C@@](O)(C(=O)CO)C[C@@H]3O[C@H]1C[C@H](N)[C@H](O)[C@H](C)O1 [adriamycin, doxorubicin]
serum enzymes (myocardial toxicity) ([8]; rat, in vivo): elevation of serum enzymes such as aspartate transaminase, lactate dehydrogenase, and creatine phosphokinase

CC(C)NCC(O)c1ccc(O)c(O)c1 (centres unmarked) [isoproterenol]
myocardial necrosis [6]: Myocardial necrosis was observed in both age groups

COc1cccc2c1C(=O)c1c(O)c3c(c(O)c1C2=O)C[C@@](O)(C(=O)CO)C[C@@H]3O[C@H]1C[C@H](N)[C@@H](O)[C@H](C)O1 [epirubicin]
of these patients, deteriorated into congestive heart failure ([9]; human, in vivo): 20%
patients with a 25% relative reduction in left ventricular ejection fraction ([9]; three years after epirubicin treatment, 120 patients): Approximately 59%

C=CC=O [Acrolein, acrolein]
cellular glutathione levels (cellular glutathione): decrease cellular glutathione levels

O=P1(N(CCCl)CCCl)NCCCO1 (centres unmarked) [cyclophosphamide]
patients who developed moderate congestive heart failure [10]: six
cardiac findings [11]: cardiac arrhythmias and intractable hypotension
patients who died of congestive heart failure [12]: Six
patients with clinical cardiotoxicity who were in the high-dose group ([13]; out of five patients who developed clinical cardiotoxicity): four
left ventricular mass index ([13]; twice-daily high-dose treatment (174+/−34 mg/kg), within a week): increase in left ventricular mass index

Nc1cc(N2CCCCC2)nc(N)[n+]1[O-] [minoxidil]
cardiac enlargement [14]: enlargement of the left ventricle, right ventricle, and interventricular septum
heart lesions [15]: interstitial hemorrhages at all dose levels
myocardial necrosis [6]: Myocardial necrosis was observed in both age groups
